In general, IC50 refers to the concentration that inhibits the measured activity by half.

Our source for the IC50 values is patent US20250025443A1, “COMPOUNDS AND METHODS FOR TREATING CORONA VIRUSES” (CLEAR CREEK BIO, INC., priority 2021, published 2025).

The target of this experiment is SARS-CoV-2 Papain-Like Protease (PLpro) (Severe acute respiratory syndrome coronavirus 2 (2019-nCoV) (SARS-CoV-2), UniProt P0DTD1). Put plainly: biochemical. Particulars: SARS-CoV-2 PLpro enzymatic fluorescence assay; read-out: PLpro IC50.

Regarding `Cc1ccc(OCCN(C)C)cc1C(=O)NC1(c2cccc(C3=CCCCC3)c2)CC1` [Compound 338, 5-(2-(Dimethylamino)ethoxy)-2-methyl-N-(1-(2′,3′,4′,5′-tetrahydro-[1,1′-biphenyl]-3-yl)cyclopropyl)benzamide], the IC50 fell in the range of 1 to 5 µM. For the molecule `Cc1ccc(OCCN(C)C)cc1C(=O)NC1(c2cccc(-c3ccccc3)c2C)CC1` [Compound 340, 5-(2-(Dimethylamino)ethoxy)-2-methyl-N-(1-(2-methyl-[1,1′-biphenyl]-3-yl)cyclopropyl)benzamide], the IC50 lay within 0.1 to 1 µM. `Cc1ccc(OCC(N)C(C)(C)C)cc1C(=O)NC1(c2cccc3ccccc23)CC1` (stereo not drawn) [Compound 343, 5-(2-Amino-3,3-dimethylbutoxy)-2-methyl-N-(1-(naphthalen-1-yl)cyclopropyl)benzamide]: the IC50 was less than 0.1 µM. As to `Cc1ccc(OCCN(C)C)cc1C(=O)NC1(c2ccccc2C(C)C)CC1` [Compound 344, 5-(2-(Dimethylamino)ethoxy)-N-(1-(2-isopropylphenyl)cyclopropyl)-2-methylbenzamide], the IC50 lay within 0.1 to 1 µM. For the molecule `Cc1ccc(OCCN(C)C)cc1C(=O)NC1(c2cc(O)cc3ccccc23)CC1` [Compound 345, 5-(2-(Dimethylamino)ethoxy)-N-(1-(3-hydroxynaphthalen-1-yl)cyclopropyl)-2-methylbenzamide], the IC50 was less than 0.1 µM. Then `Cc1ccc(OCCN(C)C)cc1C(=O)NC1(c2csc3ccccc23)CC1` [Compound 346, N-(1-(Benzo[b]thiophen-3-yl)cyclopropyl)-5-(2-(dimethylamino)ethoxy)-2-methylbenzamide], with 0.1 to 1 µM; and `CNCCOc1ccc(C)c(C(=O)NC2(c3cc(OC)cc4ccccc34)CC2)c1` [Compound 347, N-(1-(3-Methoxynaphthalen-1-yl)cyclopropyl)-2-methyl-5-(2-(methylamino)ethoxy)benzamide], with less than 0.1 µM.

In the case of `COCCN1CCC1COc1ccc(C)c(C(=O)NC2(c3cccc4ccccc34)CC2)c1` (stereo not drawn) [Compound 348, 5-((1-(2-Methoxyethyl)azetidin-2-yl)methoxy)-2-methyl-N-(1-(naphthalen-1-yl)cyclopropyl)benzamide], the half-maximal inhibitory concentration (IC50) is less than 0.1 µM. Then `CNCCOc1ccc(C)c(C(=O)N[C@@H](c2cccc3ccccc23)C(F)(F)F)c1` [Compound 349, (S)-2-Methyl-5-(2-(methylamino)ethoxy)-N-(2,2,2-trifluoro-1-(naphthalen-1-yl)ethyl)benzamide], with 0.1 to 1 µM; and `Cc1cnc(OCCN(C)C)nc1C(=O)NC1(c2cccc3ccccc23)CC1` [Compound 350, 2-(2-(Dimethylamino)ethoxy)-5-methyl-N-(1-(naphthalen-1-yl)cyclopropyl)pyrimidine-4-carboxamide], with 1 to 5 µM. The value for `CCNCCOc1ccc(C)c(C(=O)NC2(c3cccc4ccccc34)CC2)c1` [Compound 351, 5-(2-(Ethylamino)ethoxy)-2-methyl-N-(1-(naphthalen-1-yl)cyclopropyl)benzamide] was less than 0.1 µM; that for `Cc1ccc(OCC(C)(C)N)cc1C(=O)NC1(c2cccc3ccccc23)CC1` [Compound 352, 5-(2-Amino-2-methylpropoxy)-2-methyl-N-(1-(naphthalen-1-yl)cyclopropyl)benzamide] was less than 0.1 µM. For the molecule `CN(C)CCOc1ccc(C2CC2)c(C(=O)NC2(c3cccc4ccccc34)CC2)c1` [Compound 353, 2-Cyclopropyl-5-(2-(dimethylamino)ethoxy)-N-(1-(naphthalen-1-yl)cyclopropyl)benzamide], the IC50 is greater than 5 µM. On to `Cc1ccc(OCCN(C)C)cc1C(=O)NC1(c2cn(C)c3ccccc23)CC1` [Compound 354, 5-(2-(Dimethylamino)ethoxy)-2-methyl-N-(1-(1-methyl-1H-indol-3-yl)cyclopropyl)benzamide], for which the half-maximal inhibitory concentration (IC50) fell in the range of 0.1 to 1 µM. Turning to `Cc1ccc(OCCN(C)C)cc1C(=O)NC1(c2cccc(-c3cccs3)c2)CC1` [Compound 355, 5-(2-(Dimethylamino)ethoxy)-2-methyl-N-(1-(3-(thiophen-2-yl)phenyl)cyclopropyl)benzamide], the concentration for half-maximal inhibition (IC50) was in the range of 0.1 to 1 µM.

Consider `Cc1ccc(OCCN(C)C)cc1C(=O)NC1(c2cccc3sccc23)CC1` [Compound 356, N-(1-(Benzo[b]thiophen-4-yl)cyclopropyl)-5-(2-(dimethylamino)ethoxy)-2-methylbenzamide], for which the IC50 is less than 0.1 µM. Then `Cc1ccc(OCCN(C)C)cc1C(=O)NC1(c2cccc3occc23)CC1` [Compound 357, N-(1-(Benzofuran-4-yl)cyclopropyl)-5-(2-(dimethylamino)ethoxy)-2-methylbenzamide], with 0.1 to 1 µM; and `COCCNCCOc1ccc(C)c(C(=O)NC2(c3cccc4ccccc34)CC2)c1` [Compound 358, 5-(2-((2-Methoxyethyl)amino)ethoxy)-2-methyl-N-(1-(naphthalen-1-yl)cyclopropyl)benzamide], with less than 0.1 µM. Take `Cc1ccc(OCCNCCO)cc1C(=O)NC1(c2cccc3ccccc23)CC1` [Compound 359, 5-(2-((2-Hydroxyethyl)amino)ethoxy)-2-methyl-N-(1-(naphthalen-1-yl)cyclopropyl)benzamide]: the IC50 is less than 0.1 µM. Take `Cc1ccc(OCCNCc2ccccc2)cc1C(=O)NC1(c2cccc3ccccc23)CC1` [Compound 360, 5-(2-(Benzylamino)ethoxy)-2-methyl-N-(1-(naphthalen-1-yl)cyclopropyl)benzamide]: the IC50 is less than 0.1 µM. For the molecule `Cc1ccc(OCCNCC2CC2)cc1C(=O)NC1(c2cccc3ccccc23)CC1` [Compound 361, 5-(2-((Cyclopropylmethyl)amino)ethoxy)-2-methyl-N-(1-(naphthalen-1-yl)cyclopropyl)benzamide], the IC50 is less than 0.1 µM.

For the molecule `Cc1ccc(OCCNC(C)C)cc1C(=O)NC1(c2cccc3ccccc23)CC1` [Compound 362, 5-(2-(Isopropylamino)ethoxy)-2-methyl-N-(1-(naphthalen-1-yl)cyclopropyl)benzamide], the IC50 is less than 0.1 µM. Consider `COc1cc(C2(NC(=O)c3cc(OCCN)ccc3C)CC2)c2ccccc2c1` [Compound 363, 5-(2-Aminoethoxy)-N-(1-(3-methoxynaphthalen-1-yl)cyclopropyl)-2-methylbenzamide], for which the IC50 is less than 0.1 µM. Then `CCc1ccccc1C1(NC(=O)c2cc(OCCN(C)C)ccc2C)CC1` [Compound 364, 5-(2-(Dimethylamino)ethoxy)-N-(1-(2-ethylphenyl)cyclopropyl)-2-methylbenzamide], with 0.1 to 1 µM; and `Cc1ccc(OCCN(C)C)cc1C(=O)NC1(c2cccc3ccc(F)cc23)CC1` [Compound 365, 5-(2-(Dimethylamino)ethoxy)-N-(1-(7-fluoronaphthalen-1-yl)cyclopropyl)-2-methylbenzamide], with less than 0.1 µM; and `Cc1cnc(OCCN(C)C)cc1C(=O)NC1(c2cccc3ccccc23)CC1` [Compound 366, 2-(2-(Dimethylamino)ethoxy)-5-methyl-N-(1-(naphthalen-1-yl)cyclopropyl) isonicotinamide], with 0.1 to 1 µM. On to `Cc1ccc(OCC(N)c2ccccc2)cc1C(=O)NC1(c2cccc3ccccc23)CC1` (stereo not drawn) [Compound 367, 5-(2-Amino-2-phenylethoxy)-2-methyl-N-(1-(naphthalen-1-yl)cyclopropyl)benzamide], for which the IC50 was less than 0.1 µM.
